# How the values were obtained:
# [1] = tested on: urinary bladder of ovarectomized rats; test: Differential bladder tonus (bladder elasticity) of ovarectomized rats; format: in vivo, rat
# Experimental: Following a three-month treatment of ovarectomized rats with Cimicifuga racemosa extract, the maximum pressure in the urinary bladder [in mm Hg] and the minimum pressure [in mm Hg] following relaxation of the bladder were determined by instillation of 1 ml of physiological saline solution.
# [2] = tested on: estrogen receptor-alpha; test: Expression of estrogen receptor-alpha in the urinary bladder; format: in vivo, rat; conditions: ovarectomized rats
# Text: In the bladder both the estrogen receptor ER-alpha and ER-beta are expressed.
# [3] = tested on: estrogen receptor of the alpha-subtype; test: Gene expression of estrogen receptor alpha-subtype in the prostate of male castrated rat; format: in vivo
# [4] = tested on: estrogen receptor-beta; test: Gene expression of estrogen receptor-beta in the prostate of male castrated rat; format: in vivo
# [5] = tested on: rat prostate; test: In-vivo experiments in the rat prostate in the whole-body model; conditions: castrated rat
# [6] = tested on: IGF1; test: IGF1 gene expression in the prostate of castrated male rats; format: in vivo, rat
smiles,measurement,setting,value
O=C(c1ccc(OCN2CCCCC2)cc1)c1c(-c2ccc(O)cc2)sc2cc(O)ccc12 [Raloxifen],differential pressure between maximum and minimum pressure (bladder elasticity),"[1]; highest Cimicifuga dose 400 mg/kg/d, compared with Raloxifen",comparable
"C[C@]12CC[C@@H]3c4ccc(O)cc4CC[C@H]3[C@@H]1CC[C@@H]2O [estradiol, 17β-estradiol]",differential pressure between maximum and minimum pressure (bladder elasticity),"[1]; three-month treatment, instillation of 1 ml physiological saline, in comparison with placebo controls",most effective substance
same,expression of the estrogen receptor-alpha in the urinary bladder,[2],regulate down
same,gene expression of the estrogen receptor of the alpha-subtype in the prostate,[3],significantly inhibit
same,gene expression of the estrogen receptor-beta in the prostate,[4],without having an effect
C[C@]12CC[C@H]3[C@@H](CCC4=CC(=O)CC[C@@]43C)[C@@H]1CC[C@@H]2O [testosterone],prostate regression induced by castration,[5],could be antagonized
same,gene expression of the growth factor IGF1 in the prostate,[6],regulated up
